Laboratory results reported in patent US20240287138A1, “CYCLIC PEPTIDES FOR INHIBITING TNF RECEPTOR 1 ACTIVITY” (Merck Sharp & Dohme LLC, priority 2023, published 2024).
Numbered stars: 1 amine (or outer) side, 2 acyl side, 3 side chain; on linkers, the order of the positions; unused ones are H or OH. Bridge positions count the residues as written; N and C are the ends. Square brackets hold non-standard residues; d marks the D form. Peptide text beside a SMILES is read from it. Trp(βS-Me,7-OMe) = COc1cccc2c([C@H](C)[C@H](N)C(=O)O)c[nH]c12; cBu(1-CO,cis-3-CH2NH) = O=C([C@H]1C[C@@H](CN[*:1])C1)[*:2]; Trp(4-Cl) = N[C@@H](Cc1c[nH]c2cccc(Cl)c12)C(=O)O; Trp(7-Cl) = N[C@@H](Cc1c[nH]c2c(Cl)cccc12)C(=O)O; Phe(4-CONH2) = NC(=O)c1ccc(C[C@H](N)C(=O)O)cc1; Phe(4-COOH) = N[C@@H](Cc1ccc(C(=O)O)cc1)C(=O)O; Trp(7-F) = N[C@@H](Cc1c[nH]c2c(F)cccc12)C(=O)O; Trp(7-aza) = N[C@@H](Cc1c[nH]c2ncccc12)C(=O)O; X10 = O=C([C@H](Cc1ccnc2ccccc12)N[*:1])[*:2]; X2 = C[C@@H]1CC[C@@H](C(=O)[*:2])N([*:1])C1; Pip(5R-OH) = O=C(O)[C@@H]1CC[C@@H](O)CN1; X13 = O=C([C@H]1CC[C@@H](N[*:1])C1)[*:2]; αMeW = C[C@](N)(Cc1c[nH]c2ccccc12)C(=O)O; X1 = O=C([C@@H]1CC[C@H](N[*:1])C1)[*:2]; dPro(4,4-F2) = O=C(O)[C@H]1CC(F)(F)CN1; X6 = O=C([C@@H](N[*:1])C1(O)CC1)[*:2]; d(cisHyp) = O=C(O)[C@H]1C[C@@H](O)CN1; Pip(4-aza) = O=C(O)[C@@H]1CNCCN1; hPhe = N[C@@H](CCc1ccccc1)C(=O)O; 4Pal = N[C@@H](Cc1ccncc1)C(=O)O; NMeE = CN[C@@H](CCC(=O)O)C(=O)O; αMeS = C[C@](N)(CO)C(=O)O; NMeA = CN[C@@H](C)C(=O)O; Nle = CCCC[C@H](N)C(=O)O; Sar = CNCC(=O)O

Columns and labels:
human TNFR2 ECD protein = target: T1, human TNFR2 ECD protein (Homo sapiens, UniProt P20333); test: SPR off-target binding (selectivity) to human TNFR2 ECD
T1 construct: HRV 3C protease cleavage site (C); 6His (C, cleaved yes); made in house; host or cells: Sf21 insect cells (baculovirus), secreted
T1 sequence (P20333 23-257): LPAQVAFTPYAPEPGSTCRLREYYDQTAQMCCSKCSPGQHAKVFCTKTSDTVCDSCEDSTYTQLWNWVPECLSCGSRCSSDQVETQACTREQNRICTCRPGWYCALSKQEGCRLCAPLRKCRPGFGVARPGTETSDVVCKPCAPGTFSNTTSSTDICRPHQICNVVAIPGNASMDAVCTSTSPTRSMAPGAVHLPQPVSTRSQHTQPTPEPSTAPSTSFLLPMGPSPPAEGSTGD
In short: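 Read-out: kon, koff and derived affinity from SPR response units. Human TNFR1 and TNFR2 ECD, Avi-tag biotinylated with BirA, captured on a streptavidin surface; peptides injected under laminar flow in HEPES-saline with EDTA, P20 and 2% DMSO.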

[1] = target: T2, TNFα-induced NF-κB signal transduction pathway (TNFR1 signaling) in THP-1 cells (Homo sapiens, UniProt P19438); test: THP-1 Lucia NF-κB reporter cell assay, inhibition of TNFα-induced NF-κB signaling; assay type: cell-based; details: THP-1 NF-κB Lucia reporter cells, 10 ng/mL TNFα, 16-18 h, secreted luciferase; read-out: THP-1 IC50
T2 sequence (P19438 30-455): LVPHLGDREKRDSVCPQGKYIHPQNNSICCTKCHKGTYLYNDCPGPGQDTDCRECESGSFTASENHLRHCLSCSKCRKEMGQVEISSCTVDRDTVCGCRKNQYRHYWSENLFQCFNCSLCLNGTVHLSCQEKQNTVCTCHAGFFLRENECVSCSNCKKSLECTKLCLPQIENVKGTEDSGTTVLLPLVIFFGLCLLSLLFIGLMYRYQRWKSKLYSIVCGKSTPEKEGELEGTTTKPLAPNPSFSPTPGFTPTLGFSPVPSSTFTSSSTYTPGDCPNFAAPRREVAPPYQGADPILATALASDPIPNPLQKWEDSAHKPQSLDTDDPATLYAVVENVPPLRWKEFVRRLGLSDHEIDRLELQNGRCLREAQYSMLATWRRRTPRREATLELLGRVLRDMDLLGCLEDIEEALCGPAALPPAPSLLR
In short: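 Macrocyclic peptides were preincubated 1 h at 37 °C with THP-1 NF-κB-Lucia reporter cells (20,000 cells/well) in antibiotic-free RPMI 1640/10% FBS, then stimulated with 10 ng/mL human TNFα overnight (16-18 h). Secreted luciferase in supernatant was read by luminescence; IC50 from 4-parameter logistic fits.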

Compound	Kd (human TNFR2 ECD protein) [nM]	IC50 [1] [nM]
CCCC[C@@H]1NC(=O)CSC[C@@H](C(N)=O)NC(=O)[C@H]([C@@H](C)c2c[nH]c3c(OC)cccc23)NC(=O)CN(C)C(=O)[C@H](Cc2ccc(O)cc2)NC(=O)[C@H](Cc2ccc(C(=O)O)cc2)NC(=O)[C@](C)(CO)NC(=O)[C@H](Cc2c[nH]c3c(Cl)cccc23)NC(=O)[C@H](Cc2ccncc2)NC(=O)[C@H](CC(N)=O)NC(=O)[C@H]2C[C@@H](O)CN2C(=O)[C@H](Cc2c[nH]c3ncccc23)NC(=O)[C@@H]2CNCCN2C(=O)[C@H](Cc2ccncc2)NC1=O [SEQ ID NO. 261] ({CH2CO}-[Nle][4Pal][Pip(4-aza)][Trp(7-aza)][d(cisHyp)]N[4Pal][Trp(7-Cl)][αMeS][Phe(4-COOH)]Y[Sar][Trp(βS-Me,7-OMe)]C-NH2; thioether N-14)	> 1000	2.7
CCCC[C@@H]1NC(=O)[C@@H]2CC[C@@H](C2)NC(=O)[C@H]([C@@H](C)c2c[nH]c3c(OC)cccc23)NC(=O)CN(C)C(=O)[C@H](Cc2ccc(O)cc2)NC(=O)[C@H](Cc2ccc(C(=O)O)cc2)NC(=O)[C@](C)(CO)NC(=O)[C@H](Cc2c[nH]c3c(Cl)cccc23)NC(=O)[C@H](Cc2ccncc2)NC(=O)[C@H](CC(N)=O)NC(=O)[C@H](CCC(=O)O)N(C)C(=O)[C@H](Cc2c[nH]c3c(Cl)cccc23)NC(=O)[C@@H]2CNCCN2C(=O)[C@H](Cc2ccncc2)NC1=O [SEQ ID NO. 262] (cyclo([4Pal][Trp(7-Cl)][αMeS][Phe(4-COOH)]Y[Sar][Trp(βS-Me,7-OMe)][X1][Nle][4Pal][Pip(4-aza)][Trp(7-Cl)][NMeE]N))	> 1000	1.2
C[C@H]1C(=O)N[C@@H](CC(N)=O)C(=O)N[C@@H](Cc2ccncc2)C(=O)N[C@@H](Cc2c[nH]c3ccccc23)C(=O)N[C@@](C)(CO)C(=O)N[C@@H](Cc2ccc(C(=O)O)cc2)C(=O)N[C@@H](Cc2ccc(O)cc2)C(=O)N(C)CC(=O)N[C@@H](Cc2c[nH]c3ccccc23)C(=O)N[C@H](C(N)=O)CSCC(=O)N[C@@H](CCc2ccccc2)C(=O)N[C@@H](Cc2ccc(O)cc2)C(=O)N[C@@H](CO)C(=O)N[C@@H](Cc2c[nH]c3c(F)cccc23)C(=O)N1C [SEQ ID NO. 263] ({CH2CO}-[hPhe]YS[Trp(7-F)][NMeA]N[4Pal]W[αMeS][Phe(4-COOH)]Y[Sar]WC-NH2; thioether N-14)	> 1000	4.7
CCCC[C@@H]1NC(=O)[C@@H]2CC[C@@H](C2)NC(=O)[C@H]([C@@H](C)c2c[nH]c3c(OC)cccc23)NC(=O)CN(C)C(=O)[C@H](Cc2ccc(O)cc2)NC(=O)[C@H](Cc2ccc(C(=O)O)cc2)NC(=O)[C@](C)(CO)NC(=O)[C@H](Cc2c[nH]c3c(Cl)cccc23)NC(=O)[C@H](Cc2ccncc2)NC(=O)[C@H](CC(N)=O)NC(=O)[C@H]2CC(F)(F)CN2C(=O)[C@H](Cc2c[nH]c3ccccc23)NC(=O)[C@@H]2CNCCN2C(=O)[C@H](Cc2ccncc2)NC1=O [SEQ ID NO. 266] (cyclo([4Pal][Trp(7-Cl)][αMeS][Phe(4-COOH)]Y[Sar][Trp(βS-Me,7-OMe)][X1][Nle][4Pal][Pip(4-aza)]W[dPro(4,4-F2)]N))	> 1000	0.9
CCCC[C@@H]1NC(=O)[C@H]2CC[C@H](C2)NC(=O)[C@H]([C@@H](C)c2c[nH]c3c(OC)cccc23)NC(=O)CN(C)C(=O)[C@H](Cc2ccc(O)cc2)NC(=O)[C@H](Cc2ccc(C(N)=O)cc2)NC(=O)[C@](C)(CO)NC(=O)[C@H](Cc2c[nH]c3c(Cl)cccc23)NC(=O)[C@H](Cc2ccc(C(=O)O)cc2)NC(=O)[C@H](CC(N)=O)NC(=O)[C@H](CCC(=O)O)N(C)C(=O)[C@H](Cc2c[nH]c3ccccc23)NC(=O)[C@@H]2CC[C@@H](O)CN2C(=O)[C@H](Cc2ccncc2)NC1=O [SEQ ID NO. 267] (cyclo([4Pal][Pip(5R-OH)]W[NMeE]N[Phe(4-COOH)][Trp(7-Cl)][αMeS][Phe(4-CONH2)]Y[Sar][Trp(βS-Me,7-OMe)][X13][Nle]))	> 1000	1.7
CCCC[C@@H]1NC(=O)[C@H]2C[C@@H](CNC(=O)[C@H]([C@@H](C)c3c[nH]c4c(OC)cccc34)NC(=O)CN(C)C(=O)[C@H](Cc3ccc(O)cc3)NC(=O)[C@H](Cc3ccc(C(=O)O)cc3)NC(=O)[C@](C)(CO)NC(=O)[C@H](Cc3c[nH]c4c(Cl)cccc34)NC(=O)[C@H](Cc3ccncc3)NC(=O)[C@H](CC(N)=O)NC(=O)[C@H](CCC(=O)O)N(C)C(=O)[C@H](Cc3c[nH]c4ccccc34)NC(=O)[C@@H]3CNCCN3C(=O)[C@H](Cc3ccncc3)NC1=O)C2 [SEQ ID NO. 268] (cyclo([4Pal][Trp(7-Cl)][αMeS][Phe(4-COOH)]Y[Sar][Trp(βS-Me,7-OMe)][cBu(1-CO,cis-3-CH2NH)][Nle][4Pal][Pip(4-aza)]W[NMeE]N))	> 1000	2
CCCC[C@@H]1NC(=O)CSC[C@@H](C(N)=O)NC(=O)[C@H]([C@@H](C)c2c[nH]c3c(OC)cccc23)NC(=O)CN(C)C(=O)[C@H](Cc2ccc(O)cc2)NC(=O)[C@H](Cc2ccc(C(=O)O)cc2)NC(=O)[C@](C)(CO)NC(=O)[C@H](Cc2c[nH]c3c(Cl)cccc23)NC(=O)[C@H](Cc2ccncc2)NC(=O)[C@H](CC(N)=O)NC(=O)[C@H](CCC(=O)O)N(C)C(=O)[C@H](Cc2c[nH]c3ccccc23)NC(=O)[C@@H]2CC[C@@H](C)CN2C(=O)[C@H](Cc2ccncc2)NC1=O [SEQ ID NO. 272] ({CH2CO}-[Nle][4Pal][X2]W[NMeE]N[4Pal][Trp(7-Cl)][αMeS][Phe(4-COOH)]Y[Sar][Trp(βS-Me,7-OMe)]C-NH2; thioether N-14)	> 1000	2.6
C[C@@]1(CO)NC(=O)[C@H](Cc2c[nH]c3ncccc23)NC(=O)[C@H](Cc2ccncc2)NC(=O)[C@H](CC(N)=O)NC(=O)[C@H]2CCCN2C(=O)[C@H](Cc2ccnc3ccccc23)NC(=O)[C@H](CO)NC(=O)[C@H](Cc2ccncc2)NC(=O)[C@H](CCC(N)=O)NC(=O)CSC[C@@H](C(N)=O)NC(=O)[C@H](Cc2c[nH]c3cccc(Cl)c23)NC(=O)[C@@H]2CCCN2C(=O)[C@H](Cc2ccc(O)cc2)NC(=O)[C@H](Cc2ccc(C(=O)O)cc2)NC1=O [SEQ ID NO. 278] ({CH2CO}-Q[4Pal]S[X10][dP]N[4Pal][Trp(7-aza)][αMeS][Phe(4-COOH)]YP[Trp(4-Cl)]C-NH2; thioether N-14)	> 1000	54.5
CCCC[C@@H]1NC(=O)CSC[C@@H](C(N)=O)NC(=O)[C@](C)(Cc2c[nH]c3ccccc23)NC(=O)CN(C)C(=O)[C@H](Cc2ccc(O)cc2)NC(=O)[C@H](Cc2ccc(C(=O)O)cc2)NC(=O)[C@](C)(CO)NC(=O)[C@H](Cc2c[nH]c3c(Cl)cccc23)NC(=O)[C@H](Cc2ccncc2)NC(=O)[C@H](CC(N)=O)NC(=O)[C@H](CCC(=O)O)N(C)C(=O)[C@H](Cc2c[nH]c3ncccc23)NC(=O)[C@H](C2(O)CC2)NC(=O)[C@H](Cc2ccncc2)NC1=O [SEQ ID NO. 281] ({CH2CO}-[Nle][4Pal][X6][Trp(7-aza)][NMeE]N[4Pal][Trp(7-Cl)][αMeS][Phe(4-COOH)]Y[Sar][αMeW]C-NH2; thioether N-14)	> 1000	8.4
